Key:
[1] = Photochromic response of test squares on optical bench (sensitivity, saturation optical density, bleach rate); type: physicochemical; conditions: for decrease in T 1/2 versus corresponding Comparative Example: % less than corresponding CE (Example 1 vs CE1; average of Examples 2 and 4 vs CE2; Example 3 vs CE3); for ΔOD@ Saturation: UV exposure continued for 15 minutes; for ΔOD@ Saturation / ΔOD/MIN Sensitivity: 72° F. (22.2° C.); for ΔOD/MIN Sensitivity: first five (5) seconds of UV exposure, expressed per minute, 0.15 to 0.20 mW/cm2; for Bleach Rate (T 1/2): time for absorbance of activated form to reach one half the highest absorbance at room temperature (72° F., 22.2° C.) after removal of activating light
Method: (§1) Testing was done with the photochromic compounds described in Examples 1 through 4 and Comparative Examples 1 through 3 in the following manner. A quantity of photochromic compound calculated to yield a 1.5×10-3 molal solution was added to a flask containing 50 grams of a monomer blend of 4 parts ethoxylated bisphenol A dimethacrylate (BPA 2EO DMA), 1 part poly(ethylene glycol) 600 dimethacrylate, and 0.033 weight percent 2,2'-azobis(2-methyl propionitrile) (AIBN). The photochromic compound was dissolved into the monomer blend by stirring and gentle heating, if necessary. After a clear solution was obtained, it was poured into a flat sheet mold having the interior dimensions of 2.2 mm×6 inches (15.24 cm)×6 inches (15.24 cm). The mold was sealed and placed in a horizontal air flow, programmable oven programmed to increase the temperature from 40° C. to 95° C. over a 5 hour interval, hold the temperature at 95° C. for 3 hours, lower it to 60° C. over a 2 hour interval and then hold it at 60° C. for 16 hours. After the mold was opened, the polymer sheet was cut using a diamond blade saw into 2 inch (5.1 centimeters) test squares.
The photochromic test squares prepared in Part A were tested for photochromic response on an optical bench. Prior to testing on the optical bench, the photochromic test squares were conditioned, i.e., exposed to 365 nanometer ultraviolet light for about 15 minutes to activate the photochromic compounds and then placed in a 76° C. oven for about 15 minutes to bleach or inactivate the photochromic compounds. The test squares were then cooled to room temperature, exposed to fluorescent room lighting for at least 2 hours and then kept covered for at least 2 hours prior to testing on an optical bench maintained at 72° F. (22.2° C.). The bench was fitted with a 250 watt Xenon arc lamp, a remote controlled shutter, a copper sulfate bath acting as a heat sink for the arc lamp, a Schott WG-320 nm cut-off filter which removes short wavelength radiation; neutral density filter(s) and a sample holder in which the square to be tested was inserted. The power output of the optical bench, i.e., the dosage of light that the sample lens would be exposed to, was calibrated with a photochromic test square used as a reference standard. […] The UV-A detector was placed into the sample holder and the light output was measured. Adjustments to the power output were made by increasing or decreasing the lamp wattage or by adding or removing neutral density filters in the light path.
A monitoring, collimated beam of light from a tungsten lamp was passed through the square at a small angle (approximately 30°) normal to the square. After passing through the square, the light from the tungsten lamp was directed to a detector through Spectral Energy Corp. GM-200 monochromator set at the previously determined visible lambda max of the photochromic compound being measured. The output signals from the detector were processed by a radiometer.
Change in optical density (ΔOD) was determined by inserting a test square in the bleached state into the sample holder, adjusting the transmittance scale to 100%, opening the shutter from the Xenon lamp to provide ultraviolet radiation to change the test square from the bleached state to an activated (i.e., darkened) state, measuring the transmittance in the activated state, and calculating the change in optical density according to the formula: ΔOD=log(100/% Ta), where % Ta is the percent transmittance in the activated state and the logarithm is to the base 10.
The ΔOD/Min, which represents the sensitivity of the photochromic compound's response to UV light, was measured over the first five (5) seconds of UV exposure, then expressed on a per minute basis. The saturation optical density (ΔOD@ Saturation) was taken under identical conditions as the ΔOD/Min, except UV exposure was continued for 15 minutes. […]

[2] = UV-Visible absorption (lambda max) of photochromic test square polymerizates in Varian Cary 3 UV-Visible spectrophotometer; type: physicochemical; conditions: 1.5×10-3 molal; for (λ) max (VIS): maximum absorption of the activated (colored) form in the visible spectrum, test square; for (λ) max (UV): wavelength in the ultraviolet range closest to the visible spectrum at which absorption occurs, test square of BPA 2EO DMA/poly(ethylene glycol) 600 dimethacrylate
Method: as §1
The ΔOD/Min, which represents the sensitivity of the photochromic compound's response to UV light, was measured over the first five (5) seconds of UV exposure, then expressed on a per minute basis. The saturation optical density (ΔOD@ Saturation) was taken under identical conditions as the ΔOD/Min, except UV exposure was continued for 15 minutes. The lambda max (Vis) is the wavelength in nanometers (nm) in the visible spectrum at which the maximum absorption of the activated (colored) form of the photochromic compound in a test square occurs. The lambda max (Vis) wavelength was determined by testing the photochromic test square polymerizates of Part A in a Varian Cary 3 UV-Visible spectrophotometer. The lambda (λ) max (UV) is the wavelength in nanometers in the ultraviolet range closest to the visible spectrum at which the absorption of the photochromic compound occurs. This absorption was also determined with the same spectrophotometer. The Bleach Rate (T 1/2) is the time interval in seconds for the absorbance of the activated form of the photochromic compound in the test squares to reach one half the highest absorbance at room temperature (72° F., 22.2° C.) after removal of the source of activating light.

| decrease in T 1/2 versus corresponding Comparative Example [1] [%] | ΔOD@ Saturation [1] | ΔOD/MIN Sensitivity [1] | Bleach Rate (T 1/2) [1] [min] | (λ) max (VIS) [2] [nm] | (λ) max (UV) [2] [nm] | Sensitivity, units less than corresponding Comparative Example ([1]; Example 1 versus Comparative Example 1) | Compound |
| --- | --- | --- | --- | --- | --- | --- | --- |
| 42 | 0.86 | 0.24 ΔOD/MIN | 4.5 | 475 | 349 | – | COCCOCCOCCOC(=O)c1c2c(c3ccccc3c1C)OC(c1ccccc1)(c1ccccc1)C=C2 [Example 3, 2,2-diphenyl-5-(2-(2-(2-methoxyethoxy)ethoxy)ethoxycarbonyl)-6-methyl-2H-naphtho[1,2b]pyran] |
| – | 0.80 | 0.28 ΔOD/MIN | 3.83 | 486 | 348 | – | COC(=O)c1c2c(c3ccccc3c1-c1ccccc1)OC(c1ccccc1)(c1ccccc1)C=C2 [CE2, 2,2-diphenyl-5-methoxycarbonyl-6-phenyl-2H-naphtho[1,2-b]pyran, reference compound] |
| – | 0.77 | 0.29 ΔOD/MIN | 2.27 | 512 | 353 | – | COC(=O)c1c2c(c3ccccc3c1OC)OC(c1ccc(OC)cc1)(c1ccc(OC)cc1)C=C2 [CE1, 2,2-bis(4-methoxyphenyl)-5-methoxycarbonyl-6-methoxy-2H-naphtho[1,2-b]pyran, reference compound] |
| – | 1.17 | 0.23 ΔOD/MIN | 7.75 | 476 | 349 | – | COC(=O)c1c2c(c3ccccc3c1C)OC(c1ccccc1)(c1ccccc1)C=C2 [CE3, 2,2-diphenyl-5-methoxycarbonyl-6-methyl-2H-naphtho[1,2b]pyran, reference compound] |
| – | 0.67 | 0.28 ΔOD/MIN | 2.75 | 486 | 348 | – | COCCOCCOCCOC(=O)c1c2c(c3ccccc3c1-c1ccccc1)OC(c1ccccc1)(c1ccccc1)C=C2 [Example 4, 2,2-diphenyl-5-(2-(2-(2-methoxyethoxy)ethoxy)ethoxy-carbonyl)-6-phenyl-2H-naphtho[1,2-b]pyran] |
| 24 | 0.48 | 0.19 ΔOD/MIN | 1.72 | 511 | 353 | more than 0.02 units | 2,2-bis(4-methoxyphenyl)-5-methoxycarbonyl-6-methoxy(polyethoxy)-2H-naphtho[1,2-b]pyran [Example 1] |
| – | 0.67 | 0.26 ΔOD/MIN | 2.78 | 486 | 348 | – | COCCOCCOC(=O)c1c2c(c3ccccc3c1-c1ccccc1)OC(c1ccccc1)(c1ccccc1)C=C2 [Example 2, 2,2-diphenyl-5-(2-(2-methoxyethoxy)ethoxycarbonyl)-6-phenyl[2H]naphtho[1,2-b]pyran] |

From patent US5961892A, “Polyalkoxylated naphthopyrans” (PPG Industries Ohio, Inc., priority 1998, dated 1999)
